In patent US20150265644A1, “THERAPEUTIC METHODS AND COMPOSITIONS FOR TREATING DIABETES UTILIZING DITERPENOID COMPOUNDS” (Orient Europharma Co., Ltd., priority 2014, published 2015):

Experiments:
[1] = Intraperitoneal glucose tolerance test; assay type: in vivo, mice; conditions: metformin-treated group, compared to the vehicle group, normal and type 2 DM mice
Experimental: (§1) After three days of acclimatization, the mice had free access to a standard rodent chow (normal mice), a standard rodent chow after single 250 mgkg^−1 streptozotocin (STZ) intraperitoneal injection (TIDM mice), and a fat-rich chow diet and fructose-sweetened water (T2DM mice) for 4 weeks. The induction of Type 1 DM was assessed and confirmed when the mice had plasma glucose levels ≧350 mgdL^−1, accompanied with polyuria, hyperphagia and decreased body weight. The induction Type 2 DM in the mice was assessed by measuring fasting plasma glucose levels and confirmed when plasma glucose level was ≧150 mgdL^−1 after the 4-week induction. The animals were assigned randomly into three groups, with seven animals in each group. In group I, the mice were treated with vehicle, 2% DMSO in normal saline, as the negative control. In group II, the mice were intraperitoneally treated with borapetoside A (0.1-10 mgkg^−1). In […], the mice received intraperitoneally metformin (300 mgkg^−1; Sigma Chemical Co., St. Louis, Mo., U.S.A.) or insulin (0.5 IUkg^−1; Insulin Actrapid® HM; Novo Nordisk, Denmark). In the acute study, mice under anesthesia received a single intraperitoneal administration of borapetoside A, negative control, or positive control. In the subacute study, mice received intraperitoneal administrations of borapetoside A, vehicle, or insulin twice a day for seven days.
(§2) Blood samples were collected from the orbital vascular plexus of the mice under anesthesia. Blood samples were then centrifuged at 13000 rpm for 5 min, and the plasma samples were collected and kept on ice prior to the assay. The plasma glucose concentration was measured by Glucose Kit Reagent (Biosystems S.A., Barcelona, Spain) following the manufacturer's instructions, and the insulin levels were estimated using mouse insulin ELISA kit (Mercodia AB, Uppsala, Sweden).
The mice were maintained under anesthesia throughout the procedure. Glucose (2.0 gkg^−1) was administered intraperitoneally. Blood samples were collected from the orbital vascular plexus at 0, 30, 60, 120 min. The concentrations of the plasma glucose were measured, and the values of AUC were calculated accordingly.

[2] = Plasma insulin level before and after treatment in mice; assay type: in vivo
Experimental: The 4-week-old male ICR mice were purchased from the Animal Center of the College of Medicine, National Taiwan University (Taipei, Taiwan) with delicate humane care. This animal study was conducted by following the University ethical guidelines and the ‘Guide for the Care and Use of Laboratory Animals’ published by the US National Institutes of Health (NIH publication no. 85-23, revised 1996). The animal experiments were approved by the Institutional Animal Care and Use Committee (IACUC) of the National Taiwan University (IACUC No. 20110073). Animals were housed in a room at the constant temperature, 22±1° C., with 12 hours light and dark cycles.
as §1, §2

[3] = tested on: liver; assay: Glycogen content in liver in vivo; parameters: species or system mice; conditions: mice with type 2 DM, insulin 0.5 IUkg^−1 i.p.
Experimental: (§3) The mice were injected with borapetoside A (10 mgkg^−1, interperitoneal) for 60 minutes or insulin (0.5 IUkg^−1, interperitoneal) for 30 minutes. After the treatment, the anesthetic mice were sacrificed by cervical dislocation to collect the soleus muscle and liver. About 40 mg of each sample was dissolved in 1 mol/L KOH at 75° C. for 30 min. The dissolved homogenate was neutralized by glacial acetic acid and then incubated overnight in acetate buffer (0.3 mol/L sodium acetate, pH 4.8) containing amyloglucosidase (Sigma, St. Louis, Mo.). The mixture was then neutralized with 1 mol/L NaOH to stop the reaction. The glycogen contents in the tissue samples were determined as μg of glucose per mg of tissue (wet weight).

[4] = tested on: IL-6-treated C2C12 cells; assay: Glycogen content assay in IL-6-induced insulin resistant C2C12 cells; assay type: cell-based; conditions: IL-6-treated C2C12, 1 nM insulin, 30 minutes
Experimental: The C2C12 skeletal muscle cells were cultured in Dulbecco's modified Eagle's medium (DMEM; Gibco/Invitrogen, Carlsbad, Calif.), and the human hepatocellular carcinoma cell line, Hl-ep3B, was cultured in Roswell Park Memorial Institute medium 1640 (RPMI 1640 medium; Gibco/Invitrogen, Carlsbad, Calif.). Cells were cultured at 37° C. in the humidified incubator supplied with 5% CO2. Culture mediums were supplemented with 4.5 mgmL^−1 glucose, penicillin 100 IUmL^−1, streptomycin 100 μgmL^−1 and 10% fetal bovine serum (Gibco/Invitrogen, Carlsbad, Calif.). Only C2C12 cells were then switched to 2% horse serum for 3 days after reaching the 70% confluence. Myotubes formation was achieved after 4 days of incubation, and the cells were used for subsequent experiments. Culture mediums were replaced by serum free DMEM or RPMI for 24 h before experiments (see e.g., procedure described in Sultan et al., 2006).
C2C12 and Hep3B cells were treated with 1 nM insulin, 100 μM metformin, and the assigned concentration of borapetoside A for 30 minutes. To develop the insulin resistance state of cells, C2C12 cells were incubated with IL-6 at 20 ngmL^−1 for 1 hour. Later, the cells were treated with 1 nM insulin, 100 μM metformin, and the assigned concentration of borapetoside A for 30 minutes. After the assigned treatment, cells were washed twice with phosphate buffered saline (PBS). Glycogen content was measured as previously described, with some modifications (see e.g., Savage et al., 2008). The protein concentrations of the cell lysates were determined by using Pierce BCA Protein Assay Kit (Thermo-Scientific, Rockford, Ill.). The glycogen content of each sample was normalized by total protein.

[5] = tested on: soleus muscle; assay: Glycogen content in soleus muscle in vivo; parameters: species or system mice; conditions: mice with type 2 DM, insulin 0.5 IUkg^−1 i.p.
Experimental: as §3

Molecule	increase of plasma glucose level at 30 min [1]	Plasma insulin ([2]; T1DM mice, metformin 300 mgkg^−1, after-treatment)	Plasma insulin ([2]; T1DM mice, metformin 300 mgkg^−1, before-treatment)	Plasma insulin ([2]; T2DM mice, metformin 300 mgkg^−1, after-treatment)	Plasma insulin ([2]; T2DM mice, metformin 300 mgkg^−1, before-treatment)	Plasma insulin ([2]; normal mice, metformin 300 mgkg^−1, after-treatment)	Plasma insulin ([2]; normal mice, metformin 300 mgkg^−1, before-treatment)	glycogen synthesis in liver [3]	glycogen content [4]	glycogen synthesis in soleus muscle [5]
CN(C)C(=N)N=C(N)N [Metformin, metformin, reference compound]	significantly suppressed	22.7 ± 0.3 pmol/L	22.4 ± 0.4 pmol/L	182.0 ± 27.7 pmol/L	148.1 ± 15.2 pmol/L	72 ± 3.1 pmol/L	66.6 ± 1.3 pmol/L	–	–	–
insulin: short-acting insulin, Insulin Actrapid HM (Novo Nordisk), positive control 0.5 IUkg^−1 [reference compound]	–	–	–	–	–	–	–	failed to enhance	not increased	failed to enhance
